Values of other authors, collected in patent US4775679A, “Certain heterocyclic-ethyl-2,3-dihydrobenzofurans useful as anti-inflammatory agents” (Merck & Co., Inc., priority 1987, dated 1988).

System: inflammatory responses elicited by topically applied phorbol myristate acetate (PMA) or archidonic acid (AA)

## COc1ccc2c(c1)c(CC(=O)O)c(C)n2C(=O)c1ccc(Cl)cc1 [Indomethacin]
  active in this assay (topical mouse ear), previously established: active

## C[C@@H]1C[C@H]2[C@@H]3CCC4=CC(=O)C=C[C@]4(C)[C@@]3(F)[C@@H](O)C[C@]2(C)[C@@]1(O)C(=O)CO [dexamethasone]
  active in this assay (topical mouse ear), previously established: active
